Like-named read-outs stand apart in the source and are kept apart here. Each block holds one molecule with its values, some of them ahead of it.
Assay type: physicochemical
[1] = 206 °F, pH 6.0, 50 psig, 0.5 M/L NaCl, 0.05 mol/liter base generator
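Note: hydrolysis of the base generator in aqueous solution, t1/2 given in hours as the time until half of it has reacted, with pH held steady during the run.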

Excerpt: In each case, the solution was maintained at a pressure of 50 psig during the test. The pH of the solution was maintained substantially constant by adding portions at 0.1 mol/liter sodium bicarbonate solution to the system while the hydrolysis was proceeding. Each base generator solution consisted of water containing 0.5 mol/liter sodium chloride and 0.05 mols/liter of the base generator.
*^1 This is the time, in hours, required for the base generator to be
This is a convenient way to measure the speed of a reaction.

Compound: N#CO [KOCN, Potassium Cyanate]
Half Life, t1/2 (78 °F, pH 6.0, 50 psig, 0.5 M/L NaCl, 0.05 mol/liter base generator): 19.6 h | Half Life, t1/2 (78 °F, pH 6.5, 50 psig, 0.5 M/L NaCl, 0.05 mol/liter base generator): 68.6 h | Half Life, t1/2 (78 °F, pH 7.0, 50 psig, 0.5 M/L NaCl, 0.05 mol/liter base generator): 206.4 h | Half Life, t1/2 (99 °F, pH 7.0, 50 psig, 0.5 M/L NaCl, 0.05 mol/liter base generator): ~ 94.0 hours | Half Life, t1/2 (99 °F, pH 7.5, 50 psig, 0.5 M/L NaCl, 0.05 mol/liter base generator): ~ 223.0 hours | Half Life, t1/2 (116 °F, pH 8.0, 50 psig, 0.5 M/L NaCl, 0.05 mol/liter base generator): ~ 223.0 hours

Half Life, t1/2 (76 °F, pH 6.0, 50 psig, 0.5 M/L NaCl, 0.05 mol/liter base generator): 450.1 h | Half Life, t1/2 (96 °F, pH 6.0, 50 psig, 0.5 M/L NaCl, 0.05 mol/liter base generator): 53.6 h | Half Life, t1/2 (109 °F, pH 6.0, 50 psig, 0.5 M/L NaCl, 0.05 mol/liter base generator): 92.0 h | Half Life, t1/2 (109 °F, pH 7.0, 50 psig, 0.5 M/L NaCl, 0.05 mol/liter base generator): 35.0 h | Half Life, t1/2 (110 °F, pH 5.5, 50 psig, 0.5 M/L NaCl, 0.05 mol/liter base generator): 439.0 h | Half Life, t1/2 (110 °F, pH 6.5, 50 psig, 0.5 M/L NaCl, 0.05 mol/liter base generator): 43.8 h | Half Life, t1/2 (140 °F, pH 6.0, 50 psig, 0.5 M/L NaCl, 0.05 mol/liter base generator): 18.4 h | Half Life, t1/2 [1]: too fast
Compound: O=C1C=CC(=O)N1 [Maleimide]

Compound: O=N[O-].[Na+] [NaNO2, Sodium Nitrite]
Half Life, t1/2 (212 °F, pH 6.0, 50 psig, 0.5 M/L NaCl, 0.05 mol/liter base generator): 80.0 h | Half Life, t1/2 (279 °F, pH 5.5, 50 psig, 0.5 M/L NaCl, 0.05 mol/liter base generator): 17.5 h | Half Life, t1/2 (279 °F, pH 6.0, 50 psig, 0.5 M/L NaCl, 0.05 mol/liter base generator): 49.2 h | Half Life, t1/2 (279 °F, pH 7.0, 50 psig, 0.5 M/L NaCl, 0.05 mol/liter base generator): 141.4 h | Half Life, t1/2 (280 °F, pH 6.5, 50 psig, 0.5 M/L NaCl, 0.05 mol/liter base generator): 84.9 h | Half Life, t1/2 (296 °F, pH 6.5, 50 psig, 0.5 M/L NaCl, 0.05 mol/liter base generator): 73.2 h

Compound: CC1CO1 (stereo not shown) [Propylene oxide, Propylene Oxide]
Half Life, t1/2 (76 °F, pH 7.0, 50 psig, 0.5 M/L NaCl, 0.05 mol/liter base generator): 86.1 h | Half Life, t1/2 (106 °F, pH 6.0, 50 psig, 0.5 M/L NaCl, 0.05 mol/liter base generator): 26.5 h | Half Life, t1/2 (122 °F, pH 6.0, 50 psig, 0.5 M/L NaCl, 0.05 mol/liter base generator): 26.0 h | Half Life, t1/2 (122 °F, pH 7.0, 50 psig, 0.5 M/L NaCl, 0.05 mol/liter base generator): 35.6 h

Half Life, t1/2 (177 °F, pH 6.0, 50 psig, 0.5 M/L NaCl, 0.05 mol/liter base generator): 184.1 h | Half Life, t1/2 (177 °F, pH 7.0, 50 psig, 0.5 M/L NaCl, 0.05 mol/liter base generator): 28.4 h | Half Life, t1/2 [1]: 31.3 h
Compound: O=C1CCC(=O)N1 [Succinimide]

Half Life, t1/2 (0.5 m nacl water, pH 5.5): 8.4 h | Half Life, t1/2 (0.5 m nacl water, pH 6.2): 12.3 h | Half Life, t1/2 (0.5 m nacl water, pH 7): 45.2 h | Half Life, t1/2 (0.5 m nacl water, pH 8): 15.9 h
Compound: NC(N)=O [Urea]

Reference: patent publication US4617994A, “Determining residual oil saturation by injecting CO2 and base generating reactant” (priority 1985, dated 1986)
